Data from ChEMBL document CHEMBL1201862, “PubChem BioAssay data set” (2004).
The source made the active and inactive calls.

Key:
[1] = molecular target: DNA dC->dU-editing enzyme APOBEC-3G (Homo sapiens, UniProt Q9HC16); assay: Dose Response confirmation of small molecule APOBEC3G DNA Deaminase Inhibitors via a fluorescence-based single-stranded DNA deaminase assay. [Related pubchem assays (depositor defined):AID493012, AID493028]; type: functional
[2] = HEK-293T viability loss after treatment – luminescence, T-cell screen hits, cytotoxicity control for TCR NF-kB inhibitor project, dose response (AID 489026); type: functional, cell-based;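 further: cells exposed to compound about 14 hours before the viability readout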
INS1 = assay: INS-1E survival protection against cytokine death – cell-based, luminescence, retest, dose response (AID 449756); type: functional; details: Rattus norvegicus;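 further: cell death triggered by IL-1 beta plus TNF-alpha plus IFN-gamma mixture; protective hits raise ATP signal compared with cytokine alone wells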
[3] = molecular target: Heat shock protein HSP 90-alpha (Homo sapiens, UniProt P07900); type: functional, organism-based
Beta-galactosidase = Beta-galactosidase (Escherichia coli, UniProt Q8VNN2); assay: detection-enzyme interference by beta-gal modulators – biochemical, E. coli enzyme, set 3, artefact control for CCR6 antagonist project, dose response (AID 504712); type: functional
Sequence of Beta-galactosidase (Q8VNN2 whole entry): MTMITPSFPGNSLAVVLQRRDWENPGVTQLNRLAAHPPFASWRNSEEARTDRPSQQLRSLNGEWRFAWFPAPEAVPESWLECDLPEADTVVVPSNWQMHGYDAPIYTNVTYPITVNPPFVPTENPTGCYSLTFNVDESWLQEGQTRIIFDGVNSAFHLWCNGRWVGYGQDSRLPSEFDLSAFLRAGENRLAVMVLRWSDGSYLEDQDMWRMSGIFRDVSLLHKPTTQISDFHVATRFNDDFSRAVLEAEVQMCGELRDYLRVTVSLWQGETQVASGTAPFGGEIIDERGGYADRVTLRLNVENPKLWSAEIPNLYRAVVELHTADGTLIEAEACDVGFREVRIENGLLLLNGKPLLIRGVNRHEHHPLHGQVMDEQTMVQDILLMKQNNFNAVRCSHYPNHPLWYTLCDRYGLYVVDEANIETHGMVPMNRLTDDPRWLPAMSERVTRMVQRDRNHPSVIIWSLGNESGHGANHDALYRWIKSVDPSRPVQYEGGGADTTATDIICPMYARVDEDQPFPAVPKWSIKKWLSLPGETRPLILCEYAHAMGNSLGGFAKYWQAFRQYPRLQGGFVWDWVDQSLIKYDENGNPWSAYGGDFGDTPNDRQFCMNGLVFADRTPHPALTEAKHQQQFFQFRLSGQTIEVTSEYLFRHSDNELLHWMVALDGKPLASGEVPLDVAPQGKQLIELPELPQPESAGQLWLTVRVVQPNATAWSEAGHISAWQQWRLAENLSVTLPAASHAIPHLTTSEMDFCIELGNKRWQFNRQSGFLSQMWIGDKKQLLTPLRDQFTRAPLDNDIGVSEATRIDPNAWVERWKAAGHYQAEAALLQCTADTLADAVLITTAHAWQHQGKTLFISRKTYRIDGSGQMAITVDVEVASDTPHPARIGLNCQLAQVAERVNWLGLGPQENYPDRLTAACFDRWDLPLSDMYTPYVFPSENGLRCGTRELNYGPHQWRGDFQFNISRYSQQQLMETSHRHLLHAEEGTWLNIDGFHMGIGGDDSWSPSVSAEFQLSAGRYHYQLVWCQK

[4] = alpha-synuclein stem-loop luciferase translation blockers – H4 neuroglioma cells, luminescence, confirmation (AID 1988); type: functional, cell-based
[5] = molecular target: Melanin-concentrating hormone receptor 1 (Homo sapiens, UniProt Q99705); assay: Fluorescence-based counterscreen for antagonists of the G-protein coupled receptor 7 (GPR7): cell-based high throughput dose response assay to identify antagonists of the melanin-concentrating hormone receptor 1 (MCHR1).; type: functional
Sequence of Melanin-concentrating hormone receptor 1 (Q99705 whole entry): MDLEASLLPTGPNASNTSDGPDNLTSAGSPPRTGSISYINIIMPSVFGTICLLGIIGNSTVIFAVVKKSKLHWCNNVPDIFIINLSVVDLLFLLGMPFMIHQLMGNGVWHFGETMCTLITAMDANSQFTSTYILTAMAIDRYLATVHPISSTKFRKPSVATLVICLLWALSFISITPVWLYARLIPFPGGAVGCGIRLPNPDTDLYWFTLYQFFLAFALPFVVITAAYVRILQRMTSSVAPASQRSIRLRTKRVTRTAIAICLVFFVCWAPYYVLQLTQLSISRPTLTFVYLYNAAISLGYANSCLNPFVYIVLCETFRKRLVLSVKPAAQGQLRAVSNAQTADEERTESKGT

[6] = Luminescence Cell-Based Dose Response HTS to Identify Inhibitors of 5'UTR Stem-Loop Driven Prion Protein mRNA Translation in H4 Neuroglioblastoma Cells. [Related pubchem assays: 1827 (Project Summary), 1813 (Primary HTS)]; type: functional
[7] = molecular target: T1, Neuropeptides B/W receptor type 1 (Homo sapiens, UniProt P48145); assay: Fluorescence-based dose response cell-based high throughput screening assay to identify antagonists of the G-protein coupled receptor 7 (GPR7). [Related pubchem assays: 1952 (Screening assay (GPR7 antagonists).), 1880 (Summary AID.)]; type: functional
T1 sequence (P48145 whole entry): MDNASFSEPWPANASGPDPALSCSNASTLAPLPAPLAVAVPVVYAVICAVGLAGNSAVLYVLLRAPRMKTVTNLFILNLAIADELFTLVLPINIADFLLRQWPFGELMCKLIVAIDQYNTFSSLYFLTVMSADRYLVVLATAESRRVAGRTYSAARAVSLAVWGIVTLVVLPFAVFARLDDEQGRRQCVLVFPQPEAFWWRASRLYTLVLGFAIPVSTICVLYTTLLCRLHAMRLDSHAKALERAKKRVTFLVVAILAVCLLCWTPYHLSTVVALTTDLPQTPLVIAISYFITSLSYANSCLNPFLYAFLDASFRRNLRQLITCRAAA

[8] = luciferase reporter signal suppression in cells – H4 neuroglioma cells, luminescence, dose response (AID 1990); type: functional, cell-based
[9] = molecular target: T2, Voltage-gated N-type calcium channel alpha-1B subunit/Amyloid beta A4 precursor protein-binding family A member 1 (Homo sapiens, UniProt Q00975+Q02410); type: protein assay
T2 sequence (Q00975 whole entry): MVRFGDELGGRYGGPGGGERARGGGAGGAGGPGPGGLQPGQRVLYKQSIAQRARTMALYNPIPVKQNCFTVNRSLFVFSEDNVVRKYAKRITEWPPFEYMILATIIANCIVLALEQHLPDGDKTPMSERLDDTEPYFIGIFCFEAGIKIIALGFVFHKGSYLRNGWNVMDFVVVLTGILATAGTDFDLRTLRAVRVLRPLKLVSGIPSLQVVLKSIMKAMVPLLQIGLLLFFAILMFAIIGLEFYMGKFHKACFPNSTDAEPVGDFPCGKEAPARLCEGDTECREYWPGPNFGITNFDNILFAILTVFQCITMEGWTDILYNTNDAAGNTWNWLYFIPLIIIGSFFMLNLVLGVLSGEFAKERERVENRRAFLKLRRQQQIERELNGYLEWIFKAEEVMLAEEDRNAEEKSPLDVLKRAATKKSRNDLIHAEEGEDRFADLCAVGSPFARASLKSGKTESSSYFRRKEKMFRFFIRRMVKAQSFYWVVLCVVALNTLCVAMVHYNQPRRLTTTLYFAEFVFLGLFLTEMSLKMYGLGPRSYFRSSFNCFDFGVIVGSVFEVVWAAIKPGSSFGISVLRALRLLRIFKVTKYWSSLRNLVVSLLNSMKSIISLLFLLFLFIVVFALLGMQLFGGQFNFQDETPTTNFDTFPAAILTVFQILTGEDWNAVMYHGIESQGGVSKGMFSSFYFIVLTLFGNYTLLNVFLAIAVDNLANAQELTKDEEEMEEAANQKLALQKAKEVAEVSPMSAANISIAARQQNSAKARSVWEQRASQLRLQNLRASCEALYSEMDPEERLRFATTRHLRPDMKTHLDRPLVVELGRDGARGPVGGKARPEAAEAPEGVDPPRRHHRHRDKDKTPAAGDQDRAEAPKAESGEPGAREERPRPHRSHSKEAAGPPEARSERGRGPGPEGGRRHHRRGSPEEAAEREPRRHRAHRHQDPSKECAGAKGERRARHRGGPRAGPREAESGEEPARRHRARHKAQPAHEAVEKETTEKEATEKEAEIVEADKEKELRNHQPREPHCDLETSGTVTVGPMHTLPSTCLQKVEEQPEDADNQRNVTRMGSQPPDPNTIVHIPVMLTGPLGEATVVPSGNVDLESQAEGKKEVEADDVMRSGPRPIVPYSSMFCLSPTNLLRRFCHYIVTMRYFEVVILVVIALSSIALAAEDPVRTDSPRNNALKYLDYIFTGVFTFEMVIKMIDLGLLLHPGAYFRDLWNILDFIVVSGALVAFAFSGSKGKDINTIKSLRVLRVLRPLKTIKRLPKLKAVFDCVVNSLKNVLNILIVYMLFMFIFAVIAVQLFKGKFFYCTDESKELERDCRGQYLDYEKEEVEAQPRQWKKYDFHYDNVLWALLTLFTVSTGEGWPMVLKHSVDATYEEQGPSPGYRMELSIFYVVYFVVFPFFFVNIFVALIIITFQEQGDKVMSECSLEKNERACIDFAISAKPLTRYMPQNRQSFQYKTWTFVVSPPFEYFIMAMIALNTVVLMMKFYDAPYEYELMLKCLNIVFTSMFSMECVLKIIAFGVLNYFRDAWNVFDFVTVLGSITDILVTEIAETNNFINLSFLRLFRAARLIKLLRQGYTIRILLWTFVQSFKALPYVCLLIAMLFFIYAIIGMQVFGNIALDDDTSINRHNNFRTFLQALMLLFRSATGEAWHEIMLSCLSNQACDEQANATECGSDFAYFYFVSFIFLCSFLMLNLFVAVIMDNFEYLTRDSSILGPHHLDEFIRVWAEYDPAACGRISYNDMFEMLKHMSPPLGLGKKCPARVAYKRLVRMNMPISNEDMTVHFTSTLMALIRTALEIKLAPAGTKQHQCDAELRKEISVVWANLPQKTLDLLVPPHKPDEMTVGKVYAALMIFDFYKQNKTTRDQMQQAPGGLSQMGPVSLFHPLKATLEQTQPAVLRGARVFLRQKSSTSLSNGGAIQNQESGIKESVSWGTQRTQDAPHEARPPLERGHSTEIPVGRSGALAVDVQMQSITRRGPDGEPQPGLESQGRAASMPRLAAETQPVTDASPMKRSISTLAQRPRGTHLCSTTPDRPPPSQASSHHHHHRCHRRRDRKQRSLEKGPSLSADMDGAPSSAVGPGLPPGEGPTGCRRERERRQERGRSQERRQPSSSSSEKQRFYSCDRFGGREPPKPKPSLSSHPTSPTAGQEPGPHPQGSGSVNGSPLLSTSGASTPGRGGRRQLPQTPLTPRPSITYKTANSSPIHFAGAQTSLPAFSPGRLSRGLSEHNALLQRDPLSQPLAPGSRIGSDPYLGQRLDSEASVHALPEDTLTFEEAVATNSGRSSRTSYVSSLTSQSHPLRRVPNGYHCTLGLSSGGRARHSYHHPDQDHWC
T2 sequence (Q02410 whole entry): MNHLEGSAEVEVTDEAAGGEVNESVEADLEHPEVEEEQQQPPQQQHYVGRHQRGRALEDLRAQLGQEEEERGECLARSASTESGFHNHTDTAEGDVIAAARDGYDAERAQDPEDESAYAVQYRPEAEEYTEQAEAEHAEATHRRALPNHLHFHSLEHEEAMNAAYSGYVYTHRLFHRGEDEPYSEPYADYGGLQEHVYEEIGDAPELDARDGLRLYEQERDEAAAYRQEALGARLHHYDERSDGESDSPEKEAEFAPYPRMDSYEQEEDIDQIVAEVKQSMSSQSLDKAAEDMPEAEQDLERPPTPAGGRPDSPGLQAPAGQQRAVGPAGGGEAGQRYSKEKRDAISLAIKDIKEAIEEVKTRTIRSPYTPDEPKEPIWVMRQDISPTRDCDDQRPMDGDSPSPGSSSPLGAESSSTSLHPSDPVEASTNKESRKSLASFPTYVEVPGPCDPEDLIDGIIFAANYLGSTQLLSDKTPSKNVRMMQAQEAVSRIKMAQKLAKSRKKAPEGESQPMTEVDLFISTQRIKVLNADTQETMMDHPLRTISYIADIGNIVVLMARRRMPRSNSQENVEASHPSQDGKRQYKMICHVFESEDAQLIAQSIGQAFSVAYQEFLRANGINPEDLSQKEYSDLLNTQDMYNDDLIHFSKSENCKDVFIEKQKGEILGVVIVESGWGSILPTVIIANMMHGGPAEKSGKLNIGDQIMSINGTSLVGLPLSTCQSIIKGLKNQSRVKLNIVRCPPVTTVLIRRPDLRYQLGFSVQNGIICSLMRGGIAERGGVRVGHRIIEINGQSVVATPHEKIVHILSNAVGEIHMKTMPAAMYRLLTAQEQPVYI

[10] = molecular target: T2, Voltage-gated N-type calcium channel alpha-1B subunit/Amyloid beta A4 precursor protein-binding family A member 1; type: protein assay; remark: listed apart in the source
Nonstructural protein 1 = Nonstructural protein 1 (Influenza A virus, UniProt Q194T2); type: functional, Influenza A virus (A/California/07/2009(H1N1))
[11] = bead-based luminescence quenchers, dual-tagged ARNT – biochemical, AlphaScreen, cherry-pick, artefact control for ARNT-TACC3 interaction inhibitor project, dose response (AID 651705); type: functional;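 further: AlphaScreen bead proximity signal that flags compounds interfering with the detection technology; potency reflects signal decrease which marks the compound as an assay artifact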
Cytochrome P450 2C9 = Cytochrome P450 2C9 (Homo sapiens, UniProt P11712)
Troponin, cardiac muscle = Troponin, cardiac muscle (Homo sapiens, UniProt P19429+P45379+P63316); assay: Fluorescence-based biochemical high throughput dose response assay for activators of the calcium sensitivity of cardiac Regulated Thin Filaments (RTF). [Related pubchem assays (depositor defined):AID493008, AID493018, AID504382, AID504383]; type: protein-complex assay
[12] = Luminescence Cell-Based Dose Confirmation HTS to Identify Activators of 5'UTR Stem-Loop Driven Alpha-Synuclein mRNA Translation in H4 Neuroglioblastoma Cells. [Related pubchem assays: 1829 (Project Summary), 1814 (Primary HTS)]; type: functional
[13] = molecular target: T3, RNA-binding protein pos-1 (Caenorhabditis elegans, UniProt G5EF15); assay: disruptors of C. elegans POS-1 RNA interaction – biochemical, fluorescence polarization, dose response (AID 1964);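 further: purified POS-1 fused to maltose binding protein made in E. coli; potency of compounds blocking POS-1 binding to fluorescent RNA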
T3 sequence (G5EF15 whole entry): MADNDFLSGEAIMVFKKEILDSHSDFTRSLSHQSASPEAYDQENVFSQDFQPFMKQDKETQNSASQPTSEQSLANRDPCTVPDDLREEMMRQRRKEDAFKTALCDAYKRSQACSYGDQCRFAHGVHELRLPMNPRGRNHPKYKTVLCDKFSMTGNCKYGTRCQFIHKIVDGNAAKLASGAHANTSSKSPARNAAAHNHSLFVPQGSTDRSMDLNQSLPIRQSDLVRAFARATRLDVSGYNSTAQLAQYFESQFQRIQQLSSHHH

H4 = assay: Luminescence Cell-Based Dose Response HTS to Identify Activators of 5'UTR Stem-Loop Driven Prion Protein mRNA Translation in H4 Neuroglioblastoma Cells. [Related pubchem assays: 1829 (Project Summary), 1814 (Primary HTS)]; type: functional; details: Homo sapiens
[14] = Luminescence Cell-Based Dose Response HTS to Identify Activators of Luciferase Translation or Activity in H4 […] Cells. [Related pubchem assays: 1829 (Project Summary), 1814 (Primary HTS)]; type: functional
[15] = molecular target: T4, Zinc finger protein mex-5 (Caenorhabditis elegans, UniProt Q9XUB2); assay: potency of MEX-5 RNA-binding blockers – biochemical, C. elegans, fluorescence polarization, dose response (AID 1960)
T4 sequence (Q9XUB2 whole entry): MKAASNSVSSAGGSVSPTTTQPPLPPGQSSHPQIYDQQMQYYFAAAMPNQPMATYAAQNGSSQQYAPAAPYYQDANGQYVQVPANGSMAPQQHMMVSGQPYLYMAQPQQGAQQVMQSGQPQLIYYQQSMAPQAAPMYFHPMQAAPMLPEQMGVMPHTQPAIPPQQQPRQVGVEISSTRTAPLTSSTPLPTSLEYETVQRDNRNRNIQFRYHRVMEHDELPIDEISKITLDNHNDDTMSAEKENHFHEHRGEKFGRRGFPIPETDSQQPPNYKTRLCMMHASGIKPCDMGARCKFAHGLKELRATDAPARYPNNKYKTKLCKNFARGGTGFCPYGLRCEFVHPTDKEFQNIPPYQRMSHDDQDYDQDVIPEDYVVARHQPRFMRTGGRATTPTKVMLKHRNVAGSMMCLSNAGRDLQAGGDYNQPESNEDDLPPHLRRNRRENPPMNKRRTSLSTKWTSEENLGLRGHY

Cytochrome P450 3A4 = Cytochrome P450 3A4 (Homo sapiens, UniProt P08684); details: Potency;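 further: confirmatory qHTS run detecting inhibitors and substrates of CYP3A4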
[16] = molecular target: T5, Microphthalmia-associated transcription factor (Homo sapiens, UniProt O75030); assay: reducers of TRPM1 reporter luminescence, concentration series – cell-based, SK-MEL-5, cherry-picked, set 3, MITF inhibitor project, dose response (AID 493073); type: functional;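 further: SK-MEL-5 melanoma cells with luciferase driven by the MITF target TRPM1 promoter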
T5 sequence (O75030 whole entry): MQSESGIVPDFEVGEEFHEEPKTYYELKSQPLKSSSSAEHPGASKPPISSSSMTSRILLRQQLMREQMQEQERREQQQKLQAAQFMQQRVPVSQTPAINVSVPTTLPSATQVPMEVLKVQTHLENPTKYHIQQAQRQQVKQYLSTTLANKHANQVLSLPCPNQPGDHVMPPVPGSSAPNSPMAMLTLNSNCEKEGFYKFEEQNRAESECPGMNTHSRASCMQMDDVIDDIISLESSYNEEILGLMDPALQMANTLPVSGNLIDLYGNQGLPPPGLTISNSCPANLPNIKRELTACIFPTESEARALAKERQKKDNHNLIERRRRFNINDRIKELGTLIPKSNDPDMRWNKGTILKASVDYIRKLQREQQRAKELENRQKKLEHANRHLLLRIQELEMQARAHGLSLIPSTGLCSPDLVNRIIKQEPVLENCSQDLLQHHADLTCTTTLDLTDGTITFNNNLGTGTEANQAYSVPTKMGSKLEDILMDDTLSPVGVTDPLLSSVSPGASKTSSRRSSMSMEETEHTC

H9c2 = assay: cells; type: functional, cell-based; details: Rattus norvegicus, H9c2, Myocardium;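 further: confirmatory concentration-response retest of ultra-high-throughput screening hits for modulation of myocardial damage; cell death induced by hydrogen peroxide oxidative stress; compound pretreatment for 60 min then peroxide exposure for 2 h; potency is for protecting the cells against peroxide damage rather than for killing them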
[17] = molecular target: T6, Carboxy-terminal domain RNA polymerase II polypeptide A small phosphatase 1 (Homo sapiens, UniProt Q9GZU7); assay: CTDSP1 inhibitors, concentration-response, biochemical, absorbance readout, ultra-high-throughput screen actives (AID 540297); type: functional
T6 sequence (Q9GZU7 whole entry): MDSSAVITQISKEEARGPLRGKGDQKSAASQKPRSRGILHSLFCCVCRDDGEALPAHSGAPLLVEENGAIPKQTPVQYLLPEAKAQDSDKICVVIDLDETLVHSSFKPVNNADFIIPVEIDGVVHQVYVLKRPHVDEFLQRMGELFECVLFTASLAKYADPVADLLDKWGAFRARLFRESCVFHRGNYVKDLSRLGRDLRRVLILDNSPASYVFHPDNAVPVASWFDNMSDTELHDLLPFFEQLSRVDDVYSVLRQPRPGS

Sequence of DNA dC->dU-editing enzyme APOBEC-3G (Q9HC16 whole entry): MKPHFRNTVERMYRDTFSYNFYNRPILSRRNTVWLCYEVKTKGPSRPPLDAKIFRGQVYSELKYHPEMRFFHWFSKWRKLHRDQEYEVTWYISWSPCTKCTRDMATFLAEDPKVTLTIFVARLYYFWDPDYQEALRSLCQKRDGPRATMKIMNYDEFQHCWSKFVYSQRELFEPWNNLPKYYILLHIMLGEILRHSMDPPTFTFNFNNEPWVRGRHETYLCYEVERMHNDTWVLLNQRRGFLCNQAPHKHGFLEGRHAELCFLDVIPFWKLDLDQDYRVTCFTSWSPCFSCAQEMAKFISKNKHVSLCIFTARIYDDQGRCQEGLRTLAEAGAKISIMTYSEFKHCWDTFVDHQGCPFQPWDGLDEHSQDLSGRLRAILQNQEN

For CC(=O)c1ccc(NC(=O)c2ccc(NC(=O)c3ccco3)cc2)cc1, the IC50 [1] was 25.3 µM (active).
In the case of Cc1ccc(O)c(N=Nc2nccs2)c1, the IC50 [2] was > 80 µM (inactive), the AC50 (INS1) was 1.15 µM (active) and the AC50 [3] was 2.1 µM (active). The IC50 (Beta-galactosidase) was > 66.6 µM (inactive).
In the case of CCCN(CCC)CCOc1cc(C)ccc1C(C)C, the EC50 [4] was > 120 µM (not active), the IC50 [5] was 6.6 µM (active) and the EC50 [6] was > 120 µM (not active). The IC50 [7] was 10.9 µM (not active) and the EC50 [8] was > 120 µM (not active).
In the case of N#CC1=C2SCN(c3ccc(F)cc3)CN2C(=O)CC1c1cccc(F)c1 (configuration not stated), the IC50 [9] was 1.59 µM (active) and the IC50 [10] was > 50 µM (inactive).
For C/C(=N\NC(=O)C1CCCN(S(=O)(=O)c2ccccc2)C1)c1ccccn1 (configuration not stated), the IC50 (Nonstructural protein 1) was 22.2 µM (active), the AC50 [11] was 77.8 µM (active) and the IC50 (Beta-galactosidase) was > 66.6 µM (inactive).
For Cc1cc(C)cc(N2C(=O)CC(Sc3nnnn3-c3ccccc3)C2=O)c1 (configuration not stated), the AC50 (Cytochrome P450 2C9) was “inconclusive” and the IC50 (Beta-galactosidase) was > 66.6 µM (inactive).
In the case of O=C(c1ccc2c(c1)OCO2)N(CC1CCCO1)C1(C(=O)NC2CCCC2)CCCCC1 (configuration not stated), the IC50 [5] was > 43.8 µM (not active) and the IC50 [7] was > 43.8 µM (not active).
For CC(Sc1ccc2nnc(-c3ccc(F)cc3)n2n1)C(=O)O (configuration not stated), the IC50 [1] was 21 µM (active).
With COc1ccc2nc(C)c3cc(C)oc3c2c1 the EC50 (Troponin, cardiac muscle) was > 71.4 µM (inactive).
With CCOC(=O)CSc1nnc(-c2ccc(S(=O)(=O)NCc3cccs3)cc2)o1 the IC50 [5] was > 43.8 µM (not active) and the IC50 [7] was > 43.8 µM (not active).
For O=[N+]([O-])c1ccc(N2CCN(Cc3ccccc3)CC2)nc1, the IC50 [5] was 22.8 µM (not active) and the IC50 [7] was 33.4 µM (not active).
With Cc1cc(/C=C2\SC(=S)N(Cc3ccco3)C2=O)c(C)n1-c1cccnc1 the EC50 [12] was 45.2 µM (active), the EC50 [13] was 11.3 µM (inconclusive) and the EC50 (Troponin, cardiac muscle) was > 2.65 µM (active). The EC50 (H4) was 3.71 µM (active), the EC50 [14] was 119 µM (active) and the EC50 [15] was 20.2 µM (inconclusive).
With CCN(CC)CCCn1c(-c2ccccc2)nc2c(N(CCOC)CCOC)nc(C)nc21 the AC50 (Cytochrome P450 3A4) was 20 µM (inconclusive).
For COc1ccccc1NS(=O)(=O)c1cc(NC(=O)c2ccncc2)ccc1N1CCCC1, the IC50 [9] was 29 µM (active) and the IC50 [10] was > 50 µM (inactive).
For CC(Oc1ccccc1)C(=O)Nc1nc(-c2ccccn2)cs1 (configuration not stated), the AC50 [16] was 14 µM (active), the AC50 [11] was 84.7 µM (active) and the IC50 (H9c2) was > 79 µM (inactive). For the same compound, the IC50 (Beta-galactosidase) was > 66.6 µM (inactive).
In the case of CC(/C=C/c1ccco1)=N\NC(=O)c1cccnc1, the IC50 [9] was 9.19 µM (active), the IC50 [17] was 21.3 µM (active) and the IC50 [10] was 17.8 µM (active).
With C=COc1ccc(N2C(=O)c3ccccc3OC2C)cc1 (configuration not stated) the EC50 (Troponin, cardiac muscle) was > 71.4 µM (inactive).
